According to patent US20210045385A1, “PYRIDAZINONE-SUBSTITUTED KETOXIMES AS HERBICIDES” (FMC Corporation, priority 2018, published 2021):

Key:
Format in all cases: in vivo
kochia (Kochia scoparia) [1] = test: Test A preemergence, visual plant response rating; conditions: for Kochia plant response rating (0 to 100 scale): approx. 10 days
Text: (§1) Seeds of plant species selected from barnyardgrass (Echinochloa crus-galli), kochia (Kochia scoparia), ragweed (common ragweed, Ambrosia elatior), Italian ryegrass (Lolium multiflorum), foxtail, giant (giant foxtail, Setaria faberii), foxtail, green (green foxtail, Setaria viridis), and pigweed (Amaranthus retroflexus) were planted into a blend of loam soil and sand and treated preemergence with a directed soil spray using test chemicals formulated in a non-phytotoxic solvent mixture which included a surfactant.
(§2) At the same time, plants selected from these weed species and also wheat (Triticum aestivum), corn (Zea mays), blackgrass (Alopecurus myosuroides), and galium (catchweed bedstraw, Galium aparine) were planted in pots containing the same blend of loam soil and sand and treated with postemergence applications of test chemicals formulated in the same manner. Plants ranged in height from 2 to 10 cm and were in the one- to two-leaf stage for the postemergence treatment. Treated plants and untreated controls were maintained in a greenhouse for approximately 10 days, after which time all treated plants were compared to untreated controls and visually evaluated for injury. Plant response ratings, summarized in Table A, are based on a 0 to 100 scale where 0 is no effect and 100 is complete control. A dash (-) response means no test result.

[2] = tested on: barnyardgrass (Echinochloa crus-galli); test: Test A preemergence, visual plant response rating; conditions: for Barnyardgrass plant response rating (0 to 100 scale): approx. 10 days
Text: as §1, §2

[3] = tested on: pigweed (Amaranthus retroflexus); test: Test A preemergence, visual plant response rating; conditions: for Pigweed plant response rating (0 to 100 scale): approx. 10 days
Text: as §1, §2

[4] = tested on: foxtail, giant (giant foxtail, Setaria faberii); test: Test A preemergence, visual plant response rating; conditions: for Foxtail, Giant plant response rating (0 to 100 scale): approx. 10 days
Text: as §1, §2

[5] = tested on: ragweed (common ragweed, Ambrosia elatior); test: Test A preemergence, visual plant response rating; conditions: approx. 10 days
Text: as §1, §2

[6] = tested on: Italian ryegrass (Lolium multiflorum); test: Test A preemergence, visual plant response rating; conditions: for Ryegrass, Italian plant response rating (0 to 100 scale): approx. 10 days
Text: as §1, §2

corn (Zea mays) = test: Test A postemergence, visual plant response rating; conditions: for Corn plant response rating (0 to 100 scale): 500 g ai/ha, postemergence, 0 is no effect, 100 is complete control; for Corn plant response rating: Postemergence, 125 g ai/ha, 0 to 100 scale (0 no effect, 100 complete control)
Text: as §1, §2

kochia (Kochia scoparia) [7] = test: Test A postemergence, visual plant response rating; conditions: for Kochia plant response rating (0 to 100 scale): 500 g ai/ha, postemergence, 0 is no effect, 100 is complete control; for Kochia plant response rating: Postemergence, 125 g ai/ha, 0 to 100 scale (0 no effect, 100 complete control)
Text: as §1, §2

[8] = tested on: blackgrass (Alopecurus myosuroides); test: Test A postemergence, visual plant response rating; conditions: for Blackgrass plant response rating (0 to 100 scale): 500 g ai/ha, postemergence, 0 is no effect, 100 is complete control; for Blackgrass plant response rating: Postemergence, 125 g ai/ha, 0 to 100 scale (0 no effect, 100 complete control)
Text: as §1, §2

[9] = tested on: barnyardgrass (Echinochloa crus-galli); test: Test A postemergence, visual plant response rating; conditions: for Barnyardgrass plant response rating (0 to 100 scale): 500 g ai/ha, postemergence, 0 is no effect, 100 is complete control; for Barnyardgrass plant response rating: Postemergence, 125 g ai/ha, 0 to 100 scale (0 no effect, 100 complete control)
Text: as §1, §2

[10] = tested on: pigweed (Amaranthus retroflexus); test: Test A postemergence, visual plant response rating; conditions: for Pigweed plant response rating (0 to 100 scale): 500 g ai/ha, postemergence, 0 is no effect, 100 is complete control; for Pigweed plant response rating: Postemergence, 125 g ai/ha, 0 to 100 scale (0 no effect, 100 complete control)
Text: as §1, §2

[11] = tested on: wheat (Triticum aestivum); test: Test A postemergence, visual plant response rating; conditions: for Wheat plant response rating (0 to 100 scale): 500 g ai/ha, postemergence, 0 is no effect, 100 is complete control; for Wheat plant response rating: Postemergence, 125 g ai/ha, 0 to 100 scale (0 no effect, 100 complete control)
Text: as §1, §2

[12] = tested on: galium (catchweed bedstraw, Galium aparine); test: Test A postemergence, visual plant response rating; conditions: for Galium plant response rating (0 to 100 scale): 500 g ai/ha, postemergence, 0 is no effect, 100 is complete control; for Galium plant response rating: Postemergence, 125 g ai/ha, 0 to 100 scale (0 no effect, 100 complete control)
Text: as §1, §2

[13] = tested on: foxtail, giant (giant foxtail, Setaria faberii); test: Test A postemergence, visual plant response rating; conditions: for Foxtail, Giant plant response rating (0 to 100 scale): 500 g ai/ha, postemergence, 0 is no effect, 100 is complete control; for Foxtail, Giant plant response rating: Postemergence, 125 g ai/ha, 0 to 100 scale (0 no effect, 100 complete control)
Text: as §1, §2

[14] = tested on: ragweed (common ragweed, Ambrosia elatior); test: Test A postemergence, visual plant response rating; conditions: for Ragweed plant response rating (0 to 100 scale): 500 g ai/ha, postemergence, 0 is no effect, 100 is complete control; for Ragweed plant response rating: Postemergence, 125 g ai/ha, 0 to 100 scale (0 no effect, 100 complete control)
Text: as §1, §2

[15] = tested on: Italian ryegrass (Lolium multiflorum); test: Test A postemergence, visual plant response rating; conditions: for Ryegrass, Italian plant response rating (0 to 100 scale): 500 g ai/ha, postemergence, 0 is no effect, 100 is complete control; for Ryegrass, Italian plant response rating: Postemergence, 125 g ai/ha, 0 to 100 scale (0 no effect, 100 complete control)
Text: as §1, §2

[16] = tested on: barnyardgrass (Echinochloa crus-galli); test: Test B flooded paddy test, visual plant response rating; conditions: 250 g ai/ha, Flood, applied to paddy water, 2-leaf stage, evaluated after 13 to 15 days
Procedure: (§3) Plant species in the flooded paddy test selected from rice (Oryza sativa), sedge, umbrella (small-flower umbrella sedge, Cyperus difformis), ducksalad (Heteranhera limosa), and barnyardgrass (Echinochloa crus-galli) were grown to the 2-leaf stage for testing. At time of treatment, test pots were flooded to 3 cm above the soil surface treated by application of test compounds directly to the paddy water, and then maintained at that water depth for the duration of the test. Treated plants and controls were maintained in a greenhouse for 13 to 15 days, after which time all species were compared to controls and visually evaluated. […] A dash (-) response means no test result.

[17] = tested on: sedge, umbrella (small-flower umbrella sedge, Cyperus difformis); test: as above; conditions: 250 g ai/ha, Flood, applied to paddy water, 2-leaf stage, evaluated after 13 to 15 days
Procedure: as §3

rice (Oryza sativa) = test: as above; conditions: 250 g ai/ha, Flood, applied to paddy water, 2-leaf stage, evaluated after 13 to 15 days
Procedure: as §3

[18] = tested on: ducksalad (Heteranhera limosa); test: as above; conditions: 250 g ai/ha, Flood, applied to paddy water, 2-leaf stage, evaluated after 13 to 15 days
Procedure: as §3

[19] = 125 g ai/ha, preemergence, 0 to 100 scale, 0 no effect, 100 complete control

SMILES	Kochia plant response rating (0 to 100 scale) (kochia (Kochia scoparia) [1]; 500 g ai/ha Preemergence)	Barnyardgrass plant response rating (0 to 100 scale) ([2]; 500 g ai/ha Preemergence)	Pigweed plant response rating (0 to 100 scale) ([3]; 500 g ai/ha Preemergence)	Foxtail, Giant plant response rating (0 to 100 scale) ([4]; 500 g ai/ha Preemergence)	Ryegrass, Italian plant response rating (0 to 100 scale) ([6]; 500 g ai/ha Preemergence)	Corn plant response rating (0 to 100 scale) (corn (Zea mays))	Corn plant response rating (corn (Zea mays))	Kochia plant response rating (0 to 100 scale) (kochia (Kochia scoparia) [7])	Kochia plant response rating (kochia (Kochia scoparia) [7])	Blackgrass plant response rating (0 to 100 scale) [8]	Blackgrass plant response rating [8]	Barnyardgrass plant response rating (0 to 100 scale) [9]	Barnyardgrass plant response rating [9]	Pigweed plant response rating (0 to 100 scale) [10]	Pigweed plant response rating [10]	Wheat plant response rating (0 to 100 scale) [11]	Wheat plant response rating [11]	Galium plant response rating (0 to 100 scale) [12]	Galium plant response rating [12]	Foxtail, Giant plant response rating (0 to 100 scale) [13]	other results
C=CCn1nc(C)c(O)c(C(=NOC)c2cccc(Cl)c2)c1=O (mixture of isomers) [Compound 5]	0	70	0	10	20	0	0	0	0	50	10	30	10	0	0	0	0	0	0	10	Kochia plant response rating (0 to 100 scale) (kochia (Kochia scoparia) [1]; 125 g ai/ha Preemergence): 0; Barnyardgrass plant response rating (0 to 100 scale) ([2]; 125 g ai/ha Preemergence): 20; Pigweed plant response rating (0 to 100 scale) ([3]; 125 g ai/ha Preemergence): 0; Foxtail, Giant plant response rating (0 to 100 scale) ([4]; 125 g ai/ha Preemergence): 0; Ragweed plant response rating (0 to 100 scale) ([5]; 125 g ai/ha Preemergence): 0; Ragweed plant response rating (0 to 100 scale) ([5]; 500 g ai/ha Preemergence): 0; Ryegrass, Italian plant response rating (0 to 100 scale) ([6]; 125 g ai/ha Preemergence): 0; Foxtail, Giant plant response rating [13]: 0; Ragweed plant response rating (0 to 100 scale) [14]: 0; Ragweed plant response rating [14]: 0; Ryegrass, Italian plant response rating (0 to 100 scale) [15]: 30; Ryegrass, Italian plant response rating [15]: 0; Plant response rating, Barnyardgrass (0 to 100 scale, 0 is no effect, 100 is complete control) [16]: 0; Plant response rating, Sedge, Umbrella (0 to 100 scale, 0 is no effect, 100 is complete control) [17]: 0; Plant response rating, Rice (0 to 100 scale, 0 is no effect, 100 is complete control) (rice (Oryza sativa)): 0; Plant response rating, Ducksalad (0 to 100 scale, 0 is no effect, 100 is complete control) [18]: 0
CO/N=C(/c1c(OC(C)=O)c(Cl)nn(C)c1=O)c1cccc2ccccc12 [Compound 132]	90	80	80	90	0	10	10	80	60	60	40	60	20	70	40	0	0	100	90	60	Kochia plant response rating (kochia (Kochia scoparia) [1]; [19]): 90; Barnyardgrass plant response rating [2, 19]: 70; Pigweed plant response rating [3, 19]: 80; Foxtail, Giant plant response rating [4, 19]: 40; Ryegrass, Italian plant response rating [6, 19]: 0; Foxtail, Giant plant response rating [13]: 40; Ragweed plant response rating (0 to 100 scale) [14]: 90; Ragweed plant response rating [14]: 90; Ryegrass, Italian plant response rating (0 to 100 scale) [15]: 20; Ryegrass, Italian plant response rating [15]: 10; Plant response rating, Barnyardgrass (0 to 100 scale, 0 is no effect, 100 is complete control) [16]: 0; Plant response rating, Sedge, Umbrella (0 to 100 scale, 0 is no effect, 100 is complete control) [17]: 15; Plant response rating, Rice (0 to 100 scale, 0 is no effect, 100 is complete control) (rice (Oryza sativa)): 0; Plant response rating, Ducksalad (0 to 100 scale, 0 is no effect, 100 is complete control) [18]: 25
